Where two headings read alike, the source gives them in different places. Where only a bound is given, the exact number is not on record here.

These results are taken from article PMC8306139, “A Novel Dialkylamino-Functionalized Chalcone, DML6, Inhibits Cervical Cancer Cell Proliferation, In Vitro, via Induction of Oxidative Stress, Intrinsic Apoptosis and Mitotic Catastrophe” (Molecules, 2021).

In one data set the test system is A549. The data set is described as follows: MTT assay, A549. In kind it is cell-based. Conditions: read-out: IC50 ± SD Lung A549.
For a further data set, the system named is HeLa. The data set is described as follows: MTT assay, HeLa. It is filed as cell-based. Conditions: 72 h, read-out: IC50 ± SD Cervical HeLa. On the procedure:
Table S1. The antiproliferative efficacy of the DML1-DML12 compounds on the proliferation of cervical cancer cell line.
Figure S1. The efficacy of DML6 in HeLa cancer cells. The cell-viability curve produced by HeLa cells treated with
vehicle (0 μM), 5 or 10 μM of DML6 after 72 h of incubation. Cell survival was determined using the MTT assay. The
IC50 values are represented as the means ± SD of three independent experiments performed in triplicate. […]

The subject of another data set is LOVO. The data set is described as follows: MTT assay, LOVO. In kind it is cell-based. Conditions: 72 h, read-out: IC50 ± SD Colon LOVO.
The test system of another data set is DU145. The data set is described as follows: MTT assay, DU145. Conditions: Homo sapiens, DU-145, 72 h, read-out: IC50 ± SD Prostate DU145. In kind it is cell-based.
The test system of a further data set is HEK293. Kind of data set: MTT assay, HEK293. In kind it is cell-based, human. Conditions: read-out: IC50 ± SD Kidney HEK293.
Another data set relates to MDA-MB-231. Kind of data set: MTT assay, MDA-MB-231. In kind it is cell-based. Conditions: read-out: IC50 ± SD Breast MDA-MB-231.
The next data set concerns OV2008. The data set is described as follows: MTT assay, OV2008. It is filed as cell-based. Conditions: 72 h, read-out: IC50 ± SD Cervical OV2008.
The subject of another data set is cancer cell lines. Kind of data set: MTT assay, panel of cancer cell lines. It is filed as cell-based.

Experimental for A549: (§1) The concentration of the tested compounds that produced a 50% inhibition of cell growth (IC50) was determined.
(§2) A panel of cancer cell lines, including cervical (OV2008 and HeLa), breast (MDA-MB-231), lung (A549) and colon (LOVO), prostate (DU145), human embryonic kidney cells (HEK293), human colon fibroblast cells (CRL1459), and Chinese hamster ovary cells (CHO), were grown as adherent monolayers in flasks containing Dulbecco’s modified Eagle medium (DMEM), supplemented with 10% fetal bovine serum (FBS) and 1% penicillin and streptomycin, in a humidified incubator with 5% CO2 at 37 °C.
(§3) The cells were seeded evenly (180 μL/well) in 96-well plates, at a density of 3000–5000 cells/well and incubated with serial dilutions of the compounds ranging from 0.1 to 100 μM. The MTT dye (4 mg/ml) was added after 72 h of incubation and incubated with the cells for an additional 4 h at 37 °C, allowing the viable cells to biotransform the yellow-colored MTT into dark-blue formazan crystals. Following incubation, the medium was aspirated, and the formazan crystals were dissolved by adding 100 μL of DMSO to each well. Cytation™ 5 and Cytation™ 7 multi-mode detector (Bio Tek Instruments, Winooski, VT, USA) was used to determine the absorbance readings at a wavelength of 570 nm. The IC50 values were determined based on 3 separate experiments, with each experiment carried out in triplicate.
Experimental for DU145: as §1, §2, §3
Experimental for HEK293: as §1, §2, §3
Experimental for LOVO: as §1, §2, §3
Experimental for MDA-MB-231: as §1, §2, §3
Experimental for OV2008: as §1, §2
(§4) The cells were seeded evenly (180 μL/well) in 96-well plates, at a density of 3000–5000 cells/well and incubated with serial dilutions of the compounds ranging from 0.1 to 100 μM. The MTT dye (4 mg/ml) was added after 72 h of incubation and incubated with the cells for an additional 4 h at 37 °C, allowing the viable cells to biotransform the yellow-colored MTT into dark-blue formazan crystals. Following incubation, the medium was aspirated, and the formazan crystals were dissolved by adding 100 μL of DMSO to each well. Cytation™ 5 and Cytation™ 7 multi-mode detector (Bio Tek Instruments, Winooski, VT, USA) was used to determine the absorbance readings at a wavelength of 570 nm. The IC50 values were determined based on 3 separate experiments, with each experiment carried out in triplicate. The selectivity of the compounds was determined by comparing their IC50 values in cervical cancer compared to the normal epithelial cell lines, HEK293, CHO, and CRL1459.
Experimental for cancer cell lines: as §1, §2, §4

In turn, `CN(C)c1ccc(/C=C/C(=O)c2ccccn2)cc1` [DML1, (E)-3-[4-(dimethylamino)phenyl]-1-(pyridin-2-yl)prop-2-en-1-one] displayed a melting point of 126 °C. Besides, the IC50 in the data set on A549 (Homo sapiens, A549, 72 h) is > 100 µM. Besides, the IC50 with HeLa worked out at 70.7 ± 2.19 µM. Besides, in the data set on HeLa (Homo sapiens, HeLa), the IC50 is > 70 µM. Also, in the data set on LOVO (Homo sapiens, LoVo), the IC50 was > 100 µM. In addition, the IC50 with DU145 is > 100 µM. Also, in the data set with HEK293 (Homo sapiens, HEK293, 72 h), the IC50 is > 100 µM. The IC50 in the data set with MDA-MB-231 (Homo sapiens, MDA-MB-231, 72 h) is > 100 µM. Also, the IC50 with OV2008 was > 100 µM.
Compound `CCN(CC)c1ccc(/C=C/C(=O)c2ccccn2)cc1` [DML2, (E)-3-[4-(diethylamino)phenyl]-1-(pyridin-2-yl)prop-2-en-1-one] displayed a melting point of 142 °C. Moreover, the IC50 in the data set on A549 (Homo sapiens, A549, 72 h) was > 100 µM. Also, the IC50 in the data set on HeLa (Homo sapiens, HeLa) is > 100 µM. The IC50 in the data set with LOVO (Homo sapiens, LoVo) was > 100 µM. Further, the half-inhibitory concentration (IC50) in the data set on DU145 is > 100 µM. In addition, the IC50 in the data set on HEK293 (Homo sapiens, HEK293, 72 h) is > 100 µM. In the data set with MDA-MB-231 (Homo sapiens, MDA-MB-231, 72 h), the IC50 was > 100 µM. Moreover, in the data set on OV2008, the IC50 was > 100 µM.
For the compound `COc1ccc(C(=O)/C=C/c2ccc(N(C)C)cc2)cc1` [DML3, (E)-3-[4-(dimethylamino)phenyl]-1-(4-methoxyphenyl)prop-2-en-1-one], the IC50 is > 100 µM with A549 (Homo sapiens, A549, 72 h); > 100 µM in the data set on HeLa (Homo sapiens, HeLa); > 100 µM in the data set with LOVO (Homo sapiens, LoVo); > 100 µM in the data set on DU145; > 100 µM in the data set with HEK293 (Homo sapiens, HEK293, 72 h); > 100 µM in the data set with MDA-MB-231 (Homo sapiens, MDA-MB-231, 72 h). For the same compound, the IC50 in the data set on OV2008 was > 100 µM.
As to `COc1ccc(C(=O)/C=C/c2ccc(N(C)C)cc2)cc1OC` [DML4, (E)-1-[3,4-dimethoxyphenyl]-3-(4-(dimethylamino)phenyl)prop-2-en-1-one], the melting point was 86 °C. In the data set on A549 (72 h), the IC50 stood at 66.3 ± 4.6 µM. Moreover, the IC50 in the data set with A549 (Homo sapiens, A549, 72 h) came out at 45 ± 22.6 µM. For the same compound, the IC50 in the data set with HeLa (Homo sapiens, HeLa) stood at 39.5 ± 11.4 µM. Also, in the data set with LOVO, the IC50 was found to be 45 ± 22.6 µM. For the same compound, in the data set on LOVO (Homo sapiens, LoVo), the IC50 was 66.3 ± 4.6 µM. The half-inhibitory concentration (IC50) in the data set on DU145 came to 22.5 ± 4.9 µM. Moreover, the IC50 in the data set with HEK293 (72 h) turned out to be 68.5 ± 2.1 µM. For the same compound, the IC50 in the data set on HEK293 (Homo sapiens, HEK293, 72 h) is > 65 µM. Also, in the data set on cancer cell lines, the “anti-proliferative efficacy in a wide range of cancer cell lines, compared to normal cells” value is “moderate to good anti-proliferative efficacy”. Moreover, the IC50 in the data set on MDA-MB-231 (72 h) is 26.2 ± 23.9 µM. The IC50 in the data set with MDA-MB-231 (Homo sapiens, MDA-MB-231, 72 h) stood at 26.7 ± 23.9 µM. The IC50 with OV2008 came out at 13.8 ± 7 µM.
The compound `CN(C)c1ccc(C2=NN(c3ccccc3)C(c3ccccn3)C2)cc1` (stereo not shown) [DML7, N,N-dimethyl-4-[1-phenyl-5-(pyridin-2-yl)-4,5-dihydro-1H-pyrazol-3-yl]aniline] yielded a melting point of 179 °C. Also, the IC50 in the data set with A549 (Homo sapiens, A549, 72 h) was > 100 µM. For the same compound, the IC50 in the data set with HeLa (Homo sapiens, HeLa) is > 100 µM. Also, in the data set on LOVO (Homo sapiens, LoVo), the IC50 was > 100 µM. Besides, in the data set on DU145, the IC50 is > 100 µM. The IC50 in the data set with HEK293 (Homo sapiens, HEK293, 72 h) is > 100 µM. The IC50 in the data set on MDA-MB-231 (Homo sapiens, MDA-MB-231, 72 h) was > 100 µM. The IC50 in the data set on OV2008 was > 100 µM.
Compound `CCN(CC)c1ccc(C2=NN(c3ccccc3)C(c3ccccn3)C2)cc1` (stereo not shown) [DML8, N,N-diethyl-4-[1-phenyl-5-(pyridin-2-yl)-4,5-dihydro-1H-pyrazol-3-yl]aniline] displayed a melting point of 188 °C. Moreover, in the data set on A549 (Homo sapiens, A549, 72 h), the IC50 is > 100 µM. For the same compound, the IC50 in the data set on HeLa (Homo sapiens, HeLa) is > 100 µM. Besides, the IC50 in the data set with LOVO (Homo sapiens, LoVo) was > 100 µM. In addition, the IC50 in the data set with DU145 was > 100 µM. The IC50 in the data set on HEK293 (Homo sapiens, HEK293, 72 h) is > 100 µM. For the same compound, the IC50 in the data set with MDA-MB-231 (Homo sapiens, MDA-MB-231, 72 h) was > 100 µM. In addition, the IC50 with OV2008 was > 100 µM.
Turning to `COc1ccc(C2CC(c3ccc(N(C)C)cc3)=NN2c2ccccc2)cc1` (stereo not shown) [DML9, 4-(5-[4-methoxyphenyl]-1-phenyl-4,5-dihydro-1H-pyrazol-3-yl)-N,N-dimethylaniline], the melting point was found to be 147 °C. Also, in the data set with A549 (Homo sapiens, A549, 72 h), the IC50 was > 100 µM. Further, the IC50 with HeLa (Homo sapiens, HeLa) was > 100 µM. Besides, the IC50 in the data set on LOVO (Homo sapiens, LoVo) is > 100 µM. Moreover, the IC50 in the data set with DU145 was > 100 µM. Further, the IC50 in the data set with HEK293 (Homo sapiens, HEK293, 72 h) was > 100 µM. In addition, the half-inhibitory concentration (IC50) in the data set on MDA-MB-231 (Homo sapiens, MDA-MB-231, 72 h) was > 100 µM. Moreover, the IC50 with OV2008 is > 100 µM.
For `COc1ccc(C2CC(c3ccc(N(C)C)cc3)=NN2c2ccccc2)cc1OC` (stereo not shown) [DML10, 4-(5-(3,4-dimethoxyphenyl)-1-phenyl-4,5-dihydro-1H-pyrazol-3-yl)-N,N-dimethylaniline], the melting point worked out at 134 °C. The IC50 with A549 (Homo sapiens, A549, 72 h) was > 100 µM. Moreover, the IC50 in the data set with HeLa (Homo sapiens, HeLa) is > 100 µM. The IC50 in the data set on LOVO (Homo sapiens, LoVo) was > 100 µM. Besides, the IC50 in the data set with DU145 was > 100 µM. For the same compound, in the data set on HEK293 (Homo sapiens, HEK293, 72 h), the IC50 is > 100 µM. Also, the IC50 in the data set with MDA-MB-231 (Homo sapiens, MDA-MB-231, 72 h) was > 100 µM. Also, in the data set with OV2008, the IC50 was > 100 µM.
With `CCN(CC)c1ccc(C2=NN(c3ccccc3)C(c3ccc(OC)cc3)C2)cc1` (stereo not shown) [DML11, N,N-diethyl-4-(5-(4-methoxyphenyl)-1-phenyl-4,5-dihydro-1H-pyrazol-3-yl)aniline], the melting point was found to be 121 °C. Also, in the data set on A549 (Homo sapiens, A549, 72 h), the IC50 was > 100 µM. Also, the IC50 in the data set with HeLa (Homo sapiens, HeLa) was > 100 µM. Besides, the IC50 in the data set on LOVO (Homo sapiens, LoVo) is > 100 µM. The IC50 in the data set on DU145 is > 100 µM. Further, the IC50 with HEK293 (Homo sapiens, HEK293, 72 h) is > 100 µM. The IC50 with MDA-MB-231 (Homo sapiens, MDA-MB-231, 72 h) is > 100 µM. Besides, the IC50 with OV2008 is > 100 µM.
In the case of `CN(C)c1ccc(C2=NN(c3ccccc3)C(c3ccc(Cl)cc3Cl)C2)cc1` (stereo not shown) [DML12, 4-(5-(2,4-dichlorophenyl)-1-phenyl-4,5-dihydro-1H-pyrazol-3-yl)-N,N-dimethylaniline], the melting point worked out at 124 °C. In the data set with A549 (Homo sapiens, A549, 72 h), the IC50 is > 100 µM. In addition, the IC50 in the data set with HeLa (Homo sapiens, HeLa) is > 100 µM. In addition, the IC50 with LOVO (Homo sapiens, LoVo) was > 100 µM. The IC50 in the data set with DU145 is > 100 µM. Also, the IC50 in the data set with HEK293 (Homo sapiens, HEK293, 72 h) is > 100 µM. Besides, in the data set on MDA-MB-231 (Homo sapiens, MDA-MB-231, 72 h), the IC50 was > 100 µM. Also, the IC50 in the data set on OV2008 was > 100 µM.
